ChEMBL document CHEMBL5647688, “Mitogen-activated protein kinase (MEK/ERK) inhibition sensitizes cancer cells to centromere-associated protein E inhibition” (Int J Cancer, 2013)

Experiments:
Assay type in all cases: functional
NCI-H1299 = assay: Synergistic cytotoxicity against human NCI-H1299 cells expressing NRAS mutant assessed as combination index at ED 50 measured after 72 hrs in presence of MEK inhibitor GSK1120212 by Cell-titer Glo reagent assay
Calu-6 [1] = assay: Synergistic cytotoxicity against human Calu-6 cells expressing KRAS mutant assessed as combination index at ED75 measured after 72 hrs in presence of MEK inhibitor GSK1120212 by Cell-titer Glo reagent assay
SW900 = assay: Synergistic cytotoxicity against human SW900 cells expressing KRAS mutant assessed as combination index at ED75 measured after 72 hrs in presence of MEK inhibitor GSK1120212 by Cell-titer Glo reagent assay
SK-N-FI [2] = assay: Synergistic cytotoxicity against human SK-N-FI cells assessed as combination index at ED 50 measured after 72 hrs in presence of SN-38 by Cell-titer Glo reagent assay
YAPC [3] = assay: Synergistic cytotoxicity against human […] cells expressing KRAS mutant assessed as combination index at ED75 measured after 72 hrs in presence of MEK inhibitor GSK1120212 by Cell-titer Glo reagent assay
Capan-2 = assay: Synergistic cytotoxicity against human Capan-2 cells expressing KRAS mutant assessed as combination index at ED 50 measured after 72 hrs in presence of MEK inhibitor GSK1120212 by Cell-titer Glo reagent assay
NCI-H23 = assay: Synergistic cytotoxicity against human NCI-H23 cells assessed as combination index at ED75 measured after 72 hrs in presence of MEK inhibitor GSK1120212 by Cell-titer Glo reagent assay
ASPC1 [4] = assay: Synergistic cytotoxicity against human ASPC1 cells assessed as combination index at ED 50 measured after 72 hrs in presence of MEK inhibitor GSK1120212 by Cell-titer Glo reagent assay
SK-N-FI [5] = assay: Synergistic cytotoxicity against human SK-N-FI cells assessed as combination index at ED 50 measured after 72 hrs in presence of sequential treatment of […] inhibitor CI-1040 by Cell-titer Glo reagent assay
HuP-T4 = assay: Synergistic cytotoxicity against human HuP-T4 cells expressing KRAS mutant assessed as combination index at ED75 measured after 72 hrs in presence of MEK inhibitor GSK1120212 by Cell-titer Glo reagent assay
ASPC1 [6] = assay: Synergistic cytotoxicity against human ASPC1 cells expressing KRAS mutant assessed as combination index at ED75 measured after 72 hrs in presence of MEK inhibitor GSK1120212 by Cell-titer Glo reagent assay
SW1990 = assay: Synergistic cytotoxicity against human SW1990 cells expressing KRAS mutant assessed as combination index at ED 50 measured after 72 hrs in presence of MEK inhibitor GSK1120212 by Cell-titer Glo reagent assay
NCI-H1792 = assay: Synergistic cytotoxicity against human NCI-H1792 cells expressing KRAS mutant assessed as combination index at ED75 measured after 72 hrs in presence of MEK inhibitor GSK1120212 by Cell-titer Glo reagent assay
SW48 [7] = assay: Synergistic cytotoxicity against human SW48 cells assessed as combination index at ED75 measured after 72 hrs in presence of MEK inhibitor GSK1120212 by Cell-titer Glo reagent assay
NCI-H2228 [8] = assay: Synergistic cytotoxicity against human NCI-H2228 cells assessed as combination index at ED 50 measured after 72 hrs in presence of MEK inhibitor GSK1120212 by Cell-titer Glo reagent assay
NCI-H2228 [9] = assay: Synergistic cytotoxicity against human NCI-H2228 cells assessed as combination index at ED75 measured after 72 hrs in presence of MEK inhibitor GSK1120212 by Cell-titer Glo reagent assay
NCI-H2122 = assay: Synergistic cytotoxicity against human NCI-H2122 cells expressing KRAS mutant assessed as combination index at ED75 measured after 72 hrs in presence of MEK inhibitor GSK1120212 by Cell-titer Glo reagent assay
SW48 [10] = assay: Synergistic cytotoxicity against human SW48 cells assessed as combination index at ED 50 measured after 72 hrs in presence of MEK inhibitor GSK1120212 by Cell-titer Glo reagent assay
A549 = assay: Synergistic cytotoxicity against human A549 cells expressing KRAS mutant assessed as combination index at ED 50 measured after 72 hrs in presence of MEK inhibitor GSK1120212 by Cell-titer Glo reagent assay
HPAF-II = assay: Synergistic cytotoxicity against human HPAF-II cells expressing KRAS mutant assessed as combination index at ED75 measured after 72 hrs in presence of MEK inhibitor GSK1120212 by Cell-titer Glo reagent assay
SK-N-FI [11] = assay: Synergistic cytotoxicity against human SK-N-FI cells assessed as combination index at ED 50 measured after 72 hrs in presence of SN-38 and temozolomide by Cell-titer Glo reagent assay
SK-N-FI [12] = assay: Synergistic cytotoxicity against human SK-N-FI cells assessed as combination index at ED 75 measured after 72 hrs in presence of SN-38 by Cell-titer Glo reagent assay
CAPAN-1 [13] = assay: Synergistic cytotoxicity against human CAPAN-1 cells expressing KRAS mutant assessed as combination index at ED 50 measured after 72 hrs in presence of MEK inhibitor GSK1120212 by Cell-titer Glo reagent assay
NB-1691 [14] = assay: Synergistic cytotoxicity against human NB-1691 cells assessed as combination index at ED 75 measured after 72 hrs in presence of temozolomide and SN-38 by Cell-titer Glo reagent assay
NCI-H1563 = assay: Synergistic cytotoxicity against human NCI-H1563 cells assessed as combination index at ED 50 measured after 72 hrs in presence of MEK inhibitor GSK1120212 by Cell-titer Glo reagent assay
NB-1691 [15] = assay: Synergistic cytotoxicity against human NB-1691 cells assessed as combination index at ED 50 measured after 72 hrs in presence of SN-38 by Cell-titer Glo reagent assay
NB-1691 [16] = assay: Synergistic cytotoxicity against human NB-1691 cells assessed as combination index at ED 50 measured after 72 hrs in presence of temozolomide by Cell-titer Glo reagent assay
YAPC [17] = assay: Synergistic cytotoxicity against human […] cells expressing KRAS mutant assessed as combination index at ED 50 measured after 72 hrs in presence of MEK inhibitor GSK1120212 by Cell-titer Glo reagent assay
CAPAN-1 [18] = assay: Synergistic cytotoxicity against human CAPAN-1 cells expressing KRAS mutant assessed as combination index at ED75 measured after 72 hrs in presence of MEK inhibitor GSK1120212 by Cell-titer Glo reagent assay
Calu-6 [19] = assay: Synergistic cytotoxicity against human Calu-6 cells expressing KRAS mutant assessed as combination index at ED 50 measured after 72 hrs in presence of MEK inhibitor GSK1120212 by Cell-titer Glo reagent assay

CC(C)Oc1ccc(C(=O)N[C@H](CNC(=O)CN(C)C)Cc2ccc(-c3cn4cccc([C@H](C)O)c4n3)cc2)cc1Cl [GSK-923295A]
CI (NCI-H1299): 0.382
CI (Calu-6 [1]): 0.533
CI (SW900): 0.653
CI (SK-N-FI [2]): 1.845
CI (YAPC [3]): 1.31
CI (Capan-2): 0.298
CI (NCI-H23): 0.234
CI (ASPC1 [4]): 0.566
CI (SK-N-FI [5]): 0.834
CI (HuP-T4): 0.892
CI (ASPC1 [6]): 0.323
CI (SW1990): 0.176
CI (NCI-H1792): 0.482
CI (SW48 [7]): 0.091
CI (NCI-H2228 [8]): 0.317
CI (NCI-H2228 [9]): 0.404
CI (NCI-H2122): 0.796
CI (SW48 [10]): 0.36
CI (A549): 0.614
CI (HPAF-II): 0.473
CI (SK-N-FI [11]): 0.67
CI (SK-N-FI [12]): 1.754
CI (CAPAN-1 [13]): 0.053
CI (NB-1691 [14]): 0.3
CI (NCI-H1563): 0.405
CI (NB-1691 [15]): 0.394
CI (NB-1691 [16]): 0.405
CI (YAPC [17]): 0.659
CI (CAPAN-1 [18]): 0.091
CI (Calu-6 [19]): 0.556
